Reference: US20040152772A1, “1-butyric acid derivatives and the use thereof” (priority 2001, published 2004)

Key:
[1] = test system: Novikoff hepatoma cells; experiment: Proliferation of Novikoff hepatoma cells, cell count per flask after four days of cultivation; type: cell-based; conditions: FIGS. 1 and 2
From the text: The Novikoff hepatoma cells that were used derived from the Tumor Bank of the German Cancer Research Center, Heidelberg (Cancer Research 1951, 17, 1010). 100,000 cells were spread out per 25 cm^2 of cultivation surface on each occasion. After having been dissolved in a solvent, such as e.g. water, diluted ethanol, dimethyl sulfoxide or a similar material that is suitable for use in cell cultures, the substance in accordance with the invention according to Example 1, or L-cycloserine, or dehydrothreonine was added to the culture medium in increasing concentrations, e.g. L-cycloserine (Compound 16) or dehydrothreonine (Compound 2) in the range of concentrations from 80 μM-5000 μM; and carbomethoxypropionyl cyanide (Compound 13) in the range of concentrations from 100 μM-300 μM. The cell count per flask was enumerated after four days of cultivation.

[2] = test system: Novikoff cells; experiment: Effect on the metabolism (flow of glycolysis) of Novikoff cells; type: cell-based; conditions: FIG. 3

Row | Structure (SMILES) | inhibition of proliferation (cell count per flask) in comparison to the control sample ([1]; concentrations 80 μM-5000 μM) | flow of glycolysis [2] | inhibition of proliferation (cell count per flask) in comparison to the control sample ([1]; concentrations 100 μM-300 μM)
1 | C/C(O)=C(/N)C(=O)O [Compound 2, dehydrothreonine] | dose-dependent inhibition of proliferation |  | 
2 | COC(=O)CCC(=O)C#N [Compound 9, methyl ester of 4-cyano, 4-oxo-butanoic acid] |  | massively inhibited the flow of glycolysis | dose-dependent inhibition of proliferation
3 | N[C@H]1CONC1=O [Compound 16, L-cycloserine] | dose-dependent inhibition of proliferation |  | 
